{
  "source": "patent US20130295026A1",
  "about": "“FAST DISINTEGRATING COMPOSITIONS COMPRISING NABILONE AND RANDOMLY METHYLATED BETA CYCLODEXTRIN” (priority 2010, published 2013)",
  "key": {"[1]": {"conditions": "25° C; cited from earlier work"}, "[2]": {"test": "Amount of Nabilone solubilized by cyclodextrin solutions, determined by extraction of the drug from lyophilized complexes (HPLC)", "conditions": "for Increase of Nabilone solubility compared to water: water <0.5 μg/ml", "protocol": "For the preparation of solubility isotherms, a surplus of Nabilone was added to a dilution series of cyclodextrins in distilled water. The surplus of Nabilone was approximately 130% of the maximum amount of Nabilone that could be resolved theoretically in the cyclodextrin solution. For the preparation of standard curves, an accurately weighted amount of Nabilone was added to an aqueous RAMEB solution. Then, the suspensions were stirred at 600 rpm at a constant temperature (4° C.-40° C.) in the cold room or in an environmental simulation chamber for the time periods indicated. Afterwards, the samples were centrifuged at 10,000 rpm and filtrated to remove undissolved particles prior to freeze-drying or HPLC analysis.\nThe filtrated solutions of the Nabilone—cyclodextrin complexes were frozen as a thin film on the inner side of round bottom glass container in a methanol—dry ice bath. Lyophilization was performed for 20 h using a Heto Power Dry LL3000 instrument (Thermo Fisher Scientific).\nFreeze-dried products were stirred with acetonitrile for 30 min to promote complex dissociation and extraction of Nabilone. Samples were centrifuged and the residue was washed again two times with acetonitrile. Combined acetonitrile supernatants were evaporated under vacuum and the residue dissolved in a defined amount of acetonitrile. After centrifugation (10,000 rpm, 5 min) the content of Nabilone was measured using HPLC and related to 1 ml of the initial reaction solution.\nMany cyclodextrins and cyclodextrin derivatives are not soluble in acetonitrile, which in contrast is the optimal solvent for Nabilone, preventing analysis of the Nabilone-cyclodextrin complexes with HPLC. […] The concentrations of the cyclodextrin solutions were adapted to their solubility in water. Whenever possible, concentrations of 15%, 20%, and 30% were selected."}},
  "data": [
    {"compound": "CCCCCCC(C)(C)c1cc(O)c2c(c1)OC(C)(C)C1CCC(=O)CC21", "note": "(stereo not drawn) [Nabilone]", "values": [
      {"measurement": "Aqueous solubility of Nabilone", "setting": "[1]", "value": "less than 0.5 μg/ml"},
      {"measurement": "Nabilone solubility in water", "setting": "[2]; H2O, no cyclodextrin", "value": 0.5, "unit": "µg/mL"},
      {"measurement": "solubility", "setting": "[2]; water, thermodynamic from solid, Nabilone solubility in water, H2O, no cyclodextrin", "value": "< 0.5", "unit": "µg/mL"}
    ]},
    {"compound": "hydroxypropyl-β-Cyclodextrin [HP-β-CD]", "values": [
      {"measurement": "Amount of Nabilone solubilized by 1 ml cyclodextrin solution", "setting": "[2]; 15% cyclodextrin solution", "value": "16.2 ± 5.4", "unit": "µg/mL"},
      {"measurement": "Amount of Nabilone solubilized by 1 ml cyclodextrin solution", "setting": "[2]; 20% cyclodextrin solution", "value": "32.2 ± 0.1", "unit": "µg/mL"},
      {"measurement": "Amount of Nabilone solubilized by 1 ml cyclodextrin solution", "setting": "[2]; 30% cyclodextrin solution", "value": "44.5 ± 0.8", "unit": "µg/mL"},
      {"measurement": "Increase of Nabilone solubility compared to water", "setting": "[2]; 30% cyclodextrin solution", "value": 90, "unit": "fold"}
    ]},
    {"compound": "randomly methylated β-Cyclodextrin [RAMEB]", "values": [
      {"measurement": "Amount of Nabilone solubilized by 1 ml cyclodextrin solution", "setting": "[2]; 15% cyclodextrin solution", "value": "2620 ± 70", "unit": "µg/mL"},
      {"measurement": "Amount of Nabilone solubilized by 1 ml cyclodextrin solution", "setting": "[2]; 20% cyclodextrin solution", "value": "3330 ± 390", "unit": "µg/mL"},
      {"measurement": "Amount of Nabilone solubilized by 1 ml cyclodextrin solution", "setting": "[2]; 30% cyclodextrin solution", "value": "4,460±180 μg/ml"},
      {"measurement": "Increase of Nabilone solubility compared to water", "setting": "[2]; 30% cyclodextrin solution", "value": "up to 9.000 fold"}
    ]},
    {"compound": "β-CD sulfobutyl ether sodium salt [SBE-β-CD]", "values": [
      {"measurement": "Amount of Nabilone solubilized by 1 ml cyclodextrin solution", "setting": "[2]; 30% cyclodextrin solution", "value": "<1", "unit": "µg/mL"}
    ]}
  ]
}
